Experimental data from patent publication US10369105B2, “Nanoparticulate compositions for targeted delivery of acid labile, lipophilic prodrugs of cancer chemotherapeutics and their preparation” (Veiled Therapeutics LLC, priority 2014, dated 2019).

Experiments:
[1] = test system: human MDA-MB-231 mammary tumor xenografts; experiment: Antitumor efficacy study ATL-3, IV Q1Dx5 and Q4Dx3; type: in vivo, human tumor in female athymic NCr-nu/nu mice; details: for complete tumor regressions: ten mice
Procedure: Experiment ATL-3 was performed to evaluate the antitumor activity of the intravenous (IV) treatment with formulated ART-207 when administered on two different schedules to female, athymic NCr-nu/nu mice implanted subcutaneously (SC) with human MDA-MB-231 mammary tumor xenografts. Paclitaxel was included as a reference compound. • Tumor Model:
Individual tumors of 90 animals grew to 88-216 mg in weight (88-216 mm3 in size) on Day 10 after tumor fragments implantation, the day of treatment initiation. […] The time points are indicated starting from the first day of treatment with formulated ART-207, vehicle control and Paclitaxel. • Study Design: […]
Animals in Groups 2, 3, and 4 were treated with formulated ART-207 which was administered IV on a Q1Dx5 schedule starting on Day 0 (Days 0-4) at doses of 105.2, 78.9, and 52.6 mg/kg/injection, respectively. Animals in Group 5 (Emulsion control) were treated IV on Q1Dx5 schedule starting on Day 0 with a drug free formulation. […] Animals in Group 7 were treated with formulated ART-207 which was administered IV once every four days for a total of three injections (Q4Dx3) starting on Day 0 (Days 0, 4, and 8) at a dose of 78.9 mg/kg/injection. Animals in Group 8 (Emulsion control) were treated IV on a Q4Dx3 schedule starting on Day 0 with a drug free formulation. Animals in Group 9 were treated IV on a Q4Dx3 schedule starting on Day 0 with paclitaxel at a dose of 18.9 mg/kg/injection.

[2] = MTD/tolerability study ATL-1, IV Q1Dx5, nontumored mice
Procedure: (§1) MTD study consisted of two major phases:
(§2) Material remaining from the dosing emulsion solutions was shipped back to Arbor Therapeutics after the end of the treatment phase. […] The assessment of returned material was carried out side by side with material retained.
(§3) Paclitaxel was included as a reference compound. • Tumor Model:
The studies ATL-1 and ATL-2 consisted each of six groups of five nontumored mice per group for a total of 30 mice on Day 1, the first day of treatment. All treatments were administered intravenously (IV) once a day for five consecutive days (Q1Dx5) beginning on Day 1.
(§4) Animals in Group 5 (Emulsion control) were treated with a drug free formulation (injection volume of 0.21 mL/20 g of body weight).

[3] = PK/PD study ATL-4: plasma and tissue concentrations after single IV injection, nontumored mice; type: in vivo, female athymic NCr-nu/nu mice; details: paclitaxel 18.9 mg/kg single IV
Procedure: Tumor Model; Experiment ATL-4. Animals were nontumored.
Experiment ATL-4: The study consisted of ten groups of three nontumored mice per group for a total of 30 mice on Day 1, one day before the treatment. All treatments were administered as a single IV injection on Day 2.

[4] = breast cancer patients; cited from earlier work
[5] = test system: human MDA-MB-231 mammary tumor xenografts; experiment: MTD/tolerability and efficacy study ATL-2, IV Q1Dx5, tumored mice
Procedure: as §1, §2, §3
[…] All treatments were administered intravenously (IV) once a day for five consecutive days (Q1Dx5) beginning on Day 1.
as §4

[6] = Study # 2, tumor size 150 mg, Q1Dx5, dose 15 mpk
[7] = paclitaxel 15 mg/kg/injection IV Q1Dx5 (Group 6)
[8] = paclitaxel 18.9 mg/kg/injection IV Q4Dx3 (Group 9)
[9] = IV Q1Dx5, formulated ART-207 72.6, 47.1, 35.7 and 23.7 mg/kg/injection, paclitaxel 15 mg/kg/injection
[10] = Study # 1, tumor size 270 mg, Q1Dx5, dose 15 mpk

CC(=O)O[C@H]1C(=O)[C@@]2(C)[C@H]([C@H](OC(=O)c3ccccc3)[C@]3(O)C[C@H](OC(=O)[C@H](O)[C@@H](NC(=O)c4ccccc4)c4ccccc4)C(C)=C1C3(C)C)[C@]1(OC(C)=O)CO[C@@H]1C[C@@H]2O [Paclitaxel]
Survival rate (end of study) [1, 6]: 40% | Tumor free mice (end of study) [1, 6]: 40% | animals tumor-free on Day 56 [1, 7]: four | median tumor growth delay [1, 7]: 31.8 days | deaths ([1]; paclitaxel 15 mg/kg/injection IV Q1Dx5 (Group 6), Day 2): one out of ten | animals euthanized due to ataxia ([1]; paclitaxel 15 mg/kg/injection IV Q1Dx5 (Group 6), Day 12): One | complete tumor regressions [1, 7]: five | tolerability / deaths (in words) [1, 8]: tolerated without deaths or mean body weight loss | complete tumor regressions [1, 8]: one | maximum tolerated dose (MTD) ([2]; IV Q1Dx5, nontumored mice, no death or more than 20% body weight loss within 14 days of end of treatment): above 15 mg/kg/injection | tolerability / deaths (in words) [2, 9]: tolerated without deaths | AUC(0-t) ([3]; female, athymic NCr-nu/nu, mouse, plasma, read-out: AUClast for paclitaxel in plasma): 37700 ng·h/mL | half-life ([3]; female, athymic NCr-nu/nu, mouse, plasma, read-out: apparent terminal elimination half-life of paclitaxel in plasma (converted)): 1 h | clearance ([3]; female, athymic NCr-nu/nu, mouse, plasma, read-out: total body clearance of paclitaxel (converted)): 8.33 mL/min/kg | Vd ([3]; female, athymic NCr-nu/nu, mouse, plasma, read-out: volume of distribution of paclitaxel at steady state): 0.658 L/kg | mean peak plasma concentration of paclitaxel ([3]; at 5 minutes (0.083 hours)): 32.9 µg/mL | half-life (t1/2) [4]: 3.5 ± 0.80 h | maximum tolerated dose (MTD) ([5]; IV Q1Dx5, tumored mice): below 15 mg/kg/injection | tolerability / deaths (in words) [5, 9]: toxic | animals died before day 11 ([5]; Paclitaxel 15 mg/kg IV Q1Dx5, day 0 = first treatment): 4 of 5 | Survival rate (end of study) [5, 10]: 20% | Tumor free mice (end of study) [5, 10]: 0% | animals euthanized due to being moribund ([5]; paclitaxel 15 mg/kg/injection IV Q1Dx5, Days 20 and 21): two | deaths ([5]; paclitaxel 15 mg/kg/injection IV Q1Dx5, both deaths on Day 19): two out of five | tumor weight of the surviving animal ([5]; paclitaxel 15 mg/kg/injection, Day 13): 180 mg | tumor weight of the surviving animal ([5]; paclitaxel 15 mg/kg/injection, Day 47): 32 mg
